Test results from ChEMBL document CHEMBL5291721, “A preclinical secondary pharmacology resource illuminates target-adverse drug reaction associations of marketed drugs” (Nat Commun, 2023).

Experiments:
[1] = target: Beta-2 adrenergic receptor (Homo sapiens, UniProt P07550)
[2] = target: T1, Alpha-2B adrenergic receptor (Homo sapiens, UniProt P18089)
T1 sequence (P18089 whole entry): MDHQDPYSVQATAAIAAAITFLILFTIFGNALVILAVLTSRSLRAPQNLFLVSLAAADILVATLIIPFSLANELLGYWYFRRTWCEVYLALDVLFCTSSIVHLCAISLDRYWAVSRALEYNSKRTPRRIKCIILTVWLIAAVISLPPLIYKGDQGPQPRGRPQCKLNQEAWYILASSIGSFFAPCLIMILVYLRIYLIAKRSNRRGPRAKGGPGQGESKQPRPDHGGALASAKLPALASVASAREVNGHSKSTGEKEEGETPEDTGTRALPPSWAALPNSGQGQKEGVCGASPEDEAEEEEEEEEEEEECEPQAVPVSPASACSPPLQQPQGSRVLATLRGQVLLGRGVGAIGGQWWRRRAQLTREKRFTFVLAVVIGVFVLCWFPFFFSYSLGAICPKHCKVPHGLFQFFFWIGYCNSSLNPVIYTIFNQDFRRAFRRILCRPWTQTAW

Estrogen receptor = target: T2, Estrogen receptor (Homo sapiens, UniProt P03372)
T2 sequence (P03372 whole entry): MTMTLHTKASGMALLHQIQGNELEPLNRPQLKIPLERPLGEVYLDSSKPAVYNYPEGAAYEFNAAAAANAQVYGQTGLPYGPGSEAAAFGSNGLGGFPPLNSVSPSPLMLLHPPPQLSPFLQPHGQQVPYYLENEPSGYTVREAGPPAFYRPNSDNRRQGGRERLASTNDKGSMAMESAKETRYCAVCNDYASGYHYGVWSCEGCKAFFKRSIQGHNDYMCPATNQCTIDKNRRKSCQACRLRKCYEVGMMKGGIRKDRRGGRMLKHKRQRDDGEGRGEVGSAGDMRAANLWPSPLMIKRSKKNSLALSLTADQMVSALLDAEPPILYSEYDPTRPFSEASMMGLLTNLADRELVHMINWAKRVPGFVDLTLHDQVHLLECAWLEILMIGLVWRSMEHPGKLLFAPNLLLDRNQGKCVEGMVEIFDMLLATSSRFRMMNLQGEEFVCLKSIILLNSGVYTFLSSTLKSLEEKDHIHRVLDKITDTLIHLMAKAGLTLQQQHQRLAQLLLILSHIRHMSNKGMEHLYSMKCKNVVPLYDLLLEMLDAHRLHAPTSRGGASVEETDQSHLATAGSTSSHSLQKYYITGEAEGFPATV

[3] = target: T3, Muscarinic acetylcholine receptor M2 (Homo sapiens, UniProt P08172); assay type: functional, cell-based
T3 sequence (P08172 whole entry): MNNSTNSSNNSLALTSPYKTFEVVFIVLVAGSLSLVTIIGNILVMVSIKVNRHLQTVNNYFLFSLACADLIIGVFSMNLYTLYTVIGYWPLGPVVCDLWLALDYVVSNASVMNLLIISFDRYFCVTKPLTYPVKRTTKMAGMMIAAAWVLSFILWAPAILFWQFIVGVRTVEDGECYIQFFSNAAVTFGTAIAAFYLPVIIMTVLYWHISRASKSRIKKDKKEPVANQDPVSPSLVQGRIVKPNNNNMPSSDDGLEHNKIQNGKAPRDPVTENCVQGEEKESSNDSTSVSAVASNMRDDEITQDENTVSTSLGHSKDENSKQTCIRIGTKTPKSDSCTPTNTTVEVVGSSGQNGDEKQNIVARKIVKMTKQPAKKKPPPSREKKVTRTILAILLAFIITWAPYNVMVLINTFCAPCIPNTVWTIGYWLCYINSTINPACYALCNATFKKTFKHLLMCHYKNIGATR

[4] = target: T3, Muscarinic acetylcholine receptor M2; assay type: functional, cell-based; remark: listed apart in the source
[5] = target: T4, Alpha-1A adrenergic receptor (Homo sapiens, UniProt P35348); assay type: functional, cell-based
T4 sequence (P35348 whole entry): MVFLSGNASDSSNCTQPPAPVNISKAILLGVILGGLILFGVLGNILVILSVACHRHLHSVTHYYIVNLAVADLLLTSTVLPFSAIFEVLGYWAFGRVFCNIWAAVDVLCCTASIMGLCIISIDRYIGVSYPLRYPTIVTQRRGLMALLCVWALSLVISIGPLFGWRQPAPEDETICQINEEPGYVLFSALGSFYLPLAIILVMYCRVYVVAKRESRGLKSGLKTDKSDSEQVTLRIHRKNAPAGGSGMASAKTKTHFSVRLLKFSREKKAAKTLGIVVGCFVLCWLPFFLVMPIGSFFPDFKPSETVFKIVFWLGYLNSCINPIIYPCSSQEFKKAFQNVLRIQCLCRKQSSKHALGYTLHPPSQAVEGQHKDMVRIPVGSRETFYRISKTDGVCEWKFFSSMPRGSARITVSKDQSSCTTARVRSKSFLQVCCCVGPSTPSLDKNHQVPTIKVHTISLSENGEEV

[6] = target: T4, Alpha-1A adrenergic receptor; assay type: functional, cell-based; remark: listed apart in the source
[7] = target: 5-hydroxytryptamine receptor 2A (Homo sapiens, UniProt P28223); assay type: functional, cell-based
Also: assay procedure not described here.

Sequence of 5-hydroxytryptamine receptor 2A (P28223 whole entry): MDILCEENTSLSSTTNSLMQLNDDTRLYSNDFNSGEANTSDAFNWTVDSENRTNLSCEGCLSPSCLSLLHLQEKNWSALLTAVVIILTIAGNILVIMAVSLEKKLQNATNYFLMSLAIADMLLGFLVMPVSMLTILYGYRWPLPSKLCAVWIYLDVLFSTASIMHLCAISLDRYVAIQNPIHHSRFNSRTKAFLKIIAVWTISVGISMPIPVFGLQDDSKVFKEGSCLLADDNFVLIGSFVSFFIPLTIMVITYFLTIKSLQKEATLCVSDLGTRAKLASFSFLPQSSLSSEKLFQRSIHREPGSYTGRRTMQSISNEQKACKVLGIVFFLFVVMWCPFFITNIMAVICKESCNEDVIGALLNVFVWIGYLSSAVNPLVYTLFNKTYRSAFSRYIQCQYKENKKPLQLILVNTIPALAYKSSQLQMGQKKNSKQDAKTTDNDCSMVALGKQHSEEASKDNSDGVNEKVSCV
Sequence of Beta-2 adrenergic receptor (P07550 whole entry): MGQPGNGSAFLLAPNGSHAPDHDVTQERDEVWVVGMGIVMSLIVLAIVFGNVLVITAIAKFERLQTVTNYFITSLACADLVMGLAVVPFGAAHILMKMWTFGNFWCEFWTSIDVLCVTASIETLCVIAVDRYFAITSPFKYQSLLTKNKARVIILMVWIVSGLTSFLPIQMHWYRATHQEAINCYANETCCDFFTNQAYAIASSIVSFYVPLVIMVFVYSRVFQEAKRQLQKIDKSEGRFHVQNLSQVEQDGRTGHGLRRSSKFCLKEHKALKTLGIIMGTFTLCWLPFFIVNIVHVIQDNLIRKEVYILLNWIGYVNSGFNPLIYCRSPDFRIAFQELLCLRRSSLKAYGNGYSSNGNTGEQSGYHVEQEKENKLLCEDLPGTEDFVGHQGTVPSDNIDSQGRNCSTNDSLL

SMILES	AC50 [1] [µM]	AC50 [2] [µM]	AC50 (Estrogen receptor) [µM]	AC50 [3] [µM]	AC50 [4] [µM]	AC50 [5] [µM]	AC50 [6] [µM]	AC50 [7] [µM]
C[C@]12CC[C@H](O)CC1=CC[C@@H]1[C@@H]2CC[C@]2(C)C(c3cccnc3)=CC[C@@H]12 [ABIRATERONE]	> 30	> 10	> 30	> 10	> 10			
CN(C)C(=O)Oc1cc(OC(=O)N(C)C)cc(C(O)CNC(C)(C)C)c1 (stereo not drawn) [BAMBUTEROL]	9.7		> 30					
C[C@H]1C[C@H]2[C@@H]3CCC4=CC(=O)C=C[C@]4(C)[C@@]3(Cl)[C@@H](O)C[C@]2(C)[C@@]1(O)C(=O)CO [BECLOMETHASONE]	> 10		> 30					
NS(=O)(=O)c1cc(C2(O)NC(=O)c3ccccc32)ccc1Cl (stereo not drawn) [CHLORTHALIDONE]	> 10			> 10	> 10			
COc1ccc2c(c1)[C@]13CCCC[C@@H]1[C@H](C2)N(C)CC3 [DEXTROMETHORPHAN]	> 10		> 30	> 10	> 10			
O=c1oc2ccccc2c(O)c1Cc1c(O)c2ccccc2oc1=O [DICUMAROL]	> 10			> 10	> 10			
CCn1cc(C(=O)O)c(=O)c2cc(F)c(N3CCNCC3)nc21 [ENOXACIN]	> 10		> 30	> 10	> 10			
O=C(O)CSCC(=O)NC1CCSC1=O (stereo not drawn) [ERDOSTEINE]	> 30	> 30		> 30	> 30	> 30	> 30	> 30
C#C[C@]1(O)CC[C@H]2[C@@H]3CCc4cc(OC)ccc4[C@H]3CC[C@@]21C [MESTRANOL]	> 10		0.136	> 10	> 10			
N=C(N)c1ccc2cc(OC(=O)c3ccc(N=C(N)N)cc3)ccc2c1 [NAFAMOSTAT]		12		12	> 30	> 30	15	> 30
c1ccc2c(CC3=NCCN3)cccc2c1 [NAPHAZOLINE]		0.19				0.0006		
CNC(=O)Oc1ccc2c(c1)[C@]1(C)CCN(C)[C@@H]1N2C [PHYSOSTIGMINE]	> 30		> 30	> 30	> 30	> 30	> 30	
O=C(O)c1cc(O)c2c3nc4ccccc4oc-3cc(=O)c2n1 [PIRENOXINE]	> 30	3.8		> 30	> 30	> 30	> 30	> 30
NS(=O)(=O)c1cc(C(=O)O)cc(N2CCCC2)c1Oc1ccccc1 [PIRETANIDE]	> 30	> 30	> 30	> 30	> 30			> 30
CNCCCC1c2ccccc2C=Cc2ccccc21 [PROTRIPTYLINE]			> 10	1.8	> 10			
O=C(CCCN1CCC2(CC1)C(=O)NCN2c1ccccc1)c1ccc(F)cc1 [SPIPERONE]		2.25				11.8	1.6	
CCSc1ccc2c(c1)N(CCCN1CCN(C)CC1)c1ccccc1S2 [THIETHYLPERAZINE]				> 10	> 30	> 30	1.6	1.6
CN(C)c1cc(NC(=O)CNC(C)(C)C)c(O)c2c1C[C@H]1C[C@H]3[C@H](N(C)C)C(O)=C(C(N)=O)C(=O)[C@@]3(O)C(O)=C1C2=O [TIGECYCLINE]	> 30	> 30	> 30	> 30	> 30			> 30
OCCN1CCN(CC/C=C2/c3ccccc3Sc3ccc(Cl)cc32)CC1 [ZUCLOPENTHIXOL]	> 10	0.32		> 10	> 10			0.51
